Measured values from ChEMBL document CHEMBL6071165, “Design, synthesis and biological evaluation of plant-derived miliusol derivatives achieve TNBC profound regression in vivo” (Eur J Med Chem, 2024).
Activity calls are given as the source filed them. The calls are words filed in the database; no cut-off is given here.

Legend:
MDA-MB-231 [1] = test: Induction of ER stress in human MDA-MB-231 cells assessed as activation of CHOP protein level incubated for 24 hrs by Western blot analysis; assay type: functional, cell-based; conditions: dose 0.5-2 µM
MDA-MB-231 [2] = test: Inhibition of glycolysis in human MDA-MB-231 cells assessed as decrease in PKM2 protein level at 0.5 to 2 uM incubated for 24 hrs by Western blot analysis; assay type: functional, cell-based; conditions: dose 0.5-2 µM
Mitochondrial membrane [3] = test: Disruption of mitochondrial potential loss in human MDA-MB-231 cells assessed as decrease in JC-1 aggregates at 1 uM incubated for 24 hrs by JC-1 staining based flow cytometric analysis (Rvb =98.1%); assay type: cell membranes; design: scale not given: the % may be the effect or the level left
[4] = target: Eukaryotic translation initiation factor 3 subunit D (Homo sapiens) (UniProt O15371); test: Induction of thermal stabilization of EIF3D in human BT-549 cells at 1 uM by CETSA analysis; assay type: cell-based
BT-549 [5] = test: Induction of ER stress in human BT-549 cells assessed as appearance of large number of vacuoles at 1 uM incubated for 24 hrs by TEM analysis; assay type: functional, cell-based
BT-549 [6] = test: Antiproliferative activity against human BT-549 cells xenografted in female BALB/c mouse model assessed as fold change in upregulation of BIP protein level at 10 mg/kg administered subcutaneously incubated for 24 hrs by Western blot analysis (reference value: 1.00%); assay type: functional; conditions: route sc
BT-549 [7] = test: Induction of apoptosis in human BT-549 cells incubated for 24 hrs by Annexin V-PI staining based flow cytometric analysis; assay type: functional, cell-based; conditions: dose 0.5-2 µM
MDA-MB-231 [8] = test: Inhibition of tumor sphere formation in human MDA-MB-231 cells at 1 uM incubated for 24 hrs by microscopic analysis; assay type: functional, cell-based
MDA-MB-231 [9] = test: Inhibition of cell migration in human MDA-MB-231 cells assessed as reduction in MMP-2 protein level at 1 uM incubated for 24 hrs by DAPI staining based immunofluorescence analysis; assay type: functional
[10] = Toxicity in female BALB/c mouse assessed as change in heart administered subcutaneously measured upto 16 days; assay type: tissue-based; conditions: in vivo, sc, 384 h, time < 16 day
BT-549 [11] = test: Induction of apoptosis in human BT-549 cells assessed as necrotic cells at 2 uM incubated for 24 hrs by Annexin V-PI staining based flow cytometric analysis (reference value: 3.32%); assay type: functional
[12] = Toxicity in female BALB/c mouse xenografted with human BT-549 cells assessed as effect on body weight at 5 to 20 mg/kg, sc and measured daily; assay type: organism-based; conditions: in vivo, dose 5-20 mg/kg
[13] = Toxicity in female BALB/c mouse xenografted with human MDA-MB-231 cells assessed as effect on pathological changes in liver at 5 to 20 mg/kg, sc by H and E staining based analysis; assay type: organism-based; conditions: in vivo, dose 5-20 mg/kg
MDA-MB-231 [14] = test: Induction of apoptosis in human MDA-MB-231 cells assessed as viable cells at 1 uM incubated for 24 hrs by Annexin V-PI staining based flow cytometric analysis (reference value: 96.5%); assay type: functional; conditions: read-out: Activity
Mitochondrial membrane [15] = test: Disruption of mitochondrial potential loss in human BT-549 cells assessed as decrease in JC-1 aggregates at 1 uM incubated for 24 hrs by JC-1 staining based flow cytometric analysis (Rvb =98.7%); assay type: cell membranes; design: scale not given: the % may be the effect or the level left
Mitochondrial membrane [16] = test: Disruption of mitochondrial potential loss in human MDA-MB-231 cells assessed as increase in JC-1 monomers at 1 uM incubated for 24 hrs by JC-1 staining based flow cytometric analysis (Rvb =1.68%); assay type: cell membranes
MDA-MB-231 [17] = test: Induction of apoptosis in human MDA-MB-231 cells assessed as necrotic cells at 1 uM incubated for 24 hrs by Annexin V-PI staining based flow cytometric analysis (reference value: 1.29%); assay type: functional
MDA-MB-231 [18] = test: Induction of apoptosis in human MDA-MB-231 cells assessed as late apoptotic cells at 1 uM incubated for 24 hrs by Annexin V-PI staining based flow cytometric analysis (reference value: 1.83%); assay type: functional
BT-549 [19] = test: Induction of apoptosis in human BT-549 cells assessed as viable cells at 0.5 uM incubated for 24 hrs by Annexin V-PI staining based flow cytometric analysis (reference value: 93.0%); assay type: functional; conditions: read-out: Activity
MDA-MB-231 [20] = test: Antiproliferative activity against human MDA-MB-231 cells xenografted in female BALB/c mouse model assessed as fold change in downregulation of MMP-2 protein level at 10 mg/kg administered subcutaneously incubated for 24 hrs by Western blot analysis (reference value: 1.00%); assay type: functional; conditions: route sc

Sequence of Eukaryotic translation initiation factor 3 subunit D (Homo sapiens) (O15371 whole entry): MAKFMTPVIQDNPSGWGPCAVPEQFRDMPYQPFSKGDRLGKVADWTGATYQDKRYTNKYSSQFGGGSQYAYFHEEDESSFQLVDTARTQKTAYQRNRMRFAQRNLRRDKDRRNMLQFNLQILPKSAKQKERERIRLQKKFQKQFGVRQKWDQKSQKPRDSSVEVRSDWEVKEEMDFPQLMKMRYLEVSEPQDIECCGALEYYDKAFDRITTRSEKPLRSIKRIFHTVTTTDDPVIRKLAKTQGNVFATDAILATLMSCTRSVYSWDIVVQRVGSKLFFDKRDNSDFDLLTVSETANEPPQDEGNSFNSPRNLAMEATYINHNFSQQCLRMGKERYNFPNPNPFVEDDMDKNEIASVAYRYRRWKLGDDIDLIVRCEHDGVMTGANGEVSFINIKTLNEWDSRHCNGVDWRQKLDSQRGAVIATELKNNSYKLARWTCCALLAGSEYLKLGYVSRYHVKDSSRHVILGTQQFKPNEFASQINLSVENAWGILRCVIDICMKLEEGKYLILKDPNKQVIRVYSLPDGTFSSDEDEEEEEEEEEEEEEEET

- Activity (Mitochondrial membrane [3]): 58.2%
- Activity [4]: Active
- Activity (Mitochondrial membrane [15]): 43.2%
- Activity (Mitochondrial membrane [16]): 42.6%
SMILES: CC(C)=CCC/C(C)=C/[C@H]1OC(=O)CC12C[C@H](OC(=O)Cc1ccc(NC(=O)/C=C/c3ccccc3)cc1)C=CC2=O (stereo not given in full)
- Activity (MDA-MB-231 [1]): Dose-Dependent Effect
- inhibition (MDA-MB-231 [2]): Active
- Activity (BT-549 [5]): Active
- fold change (FC) (BT-549 [6]): 1.9
- Activity (BT-549 [7]): Dose-Dependent Effect
- inhibition (MDA-MB-231 [8]): Active
- inhibition (MDA-MB-231 [9]): Active
- Activity [10]: Non-Toxic
- Activity (BT-549 [11]): 4.02%
- Activity [12]: Non-Toxic
- Activity [13]: Non-Toxic
- viability at 1 µM (MDA-MB-231 [14]): 42%
- Activity (MDA-MB-231 [17]): 15.9%
- Activity (MDA-MB-231 [18]): 41.2%
- viability at 0.5 µM (BT-549 [19]): 91.7%
- fold change (FC) (MDA-MB-231 [20]): 0.26
